This experiment relates to lipid peroxidation (cerebral tissue homogenate). Kind of experiment: Inhibition test of lipid peroxidation (malondialdehyde formation, thiobarbituric acid method). The settings on record: rat cerebral tissue supernatant, pH 7.4, 37° C., 30 minutes.

As to `CC(C)N(CCSSCCN(c1nc(N)n[nH]1)C(C)C)c1nc(N)n[nH]1` [Compound 6], the “Inhibition (%) Dose 100 μM” value is given as 55.7%.
For the molecule `Nc1nc(N(CCSSCCN(Cc2ccccc2)c2n[nH]c(N)n2)Cc2ccccc2)n[nH]1` [Compound 7, bis{2-[N-benzyl-N-(5-amino-1,2,4-triazol-3-yl)amino]ethyl}disulfide], the “Inhibition (%) Dose 5 μM” value came out at 31.4% and the “Inhibition (%) Dose 100 μM” value came out at 96.0%.
In the case of `Nc1n[nH]c(N(CCSSCCN(Cc2cccc(Br)c2)c2nc(N)n[nH]2)Cc2cccc(Br)c2)n1` [Compound 13], the “Inhibition (%) Dose 5 μM” value is recorded as 51.1%.
Same read-out and setting: with `Nc1n[nH]c(N(CCSSCCN(Cc2ccc(Br)cc2)c2nc(N)n[nH]2)Cc2ccc(Br)cc2)n1` [Compound 14] the figure was 49.2%.
Turning to `COc1ccc(CN(CCSSCCN(Cc2ccc(OC)cc2)c2nc(N)n[nH]2)c2nc(N)n[nH]2)cc1` [Compound 17], the “Inhibition (%) Dose 5 μM” value is recorded as 22.2% and the “Inhibition (%) Dose 100 μM” value came to 100%.
Take `Nc1n[nH]c(N(CCSSCCN(Cc2ccc(OCc3ccccc3)cc2)c2nc(N)n[nH]2)Cc2ccc(OCc3ccccc3)cc2)n1` [Compound 18]: the “Inhibition (%) Dose 5 μM” value came to 71.7%.
For the molecule `Nc1n[nH]c(N(CCSSCCN(Cc2cccc([N+](=O)[O-])c2)c2nc(N)n[nH]2)Cc2cccc([N+](=O)[O-])c2)n1` [Compound 19], the “Inhibition (%) Dose 5 μM” value came out at 21.3% and the “Inhibition (%) Dose 100 μM” value is listed as 100%.
As to `Nc1n[nH]c(N(CCSSCCN(Cc2ccc([N+](=O)[O-])cc2)c2nc(N)n[nH]2)Cc2ccc([N+](=O)[O-])cc2)n1` [Compound 20], the “Inhibition (%) Dose 5 μM” value is 35.2%.
On the same count and under the same terms, next, `Nc1n[nH]c(N(CCSSCCN(Cc2cccc(C(F)(F)F)c2)c2nc(N)n[nH]2)Cc2cccc(C(F)(F)F)c2)n1` [Compound 22]: 36.6%; `Cc1cccc(CN(CCSSCCN(Cc2cccc(C)c2)c2nc(N)n[nH]2)c2nc(N)n[nH]2)c1` [Compound 23]: 48.1%; `Cc1ccccc1CN(CCSSCCN(Cc1ccccc1C)c1nc(N)n[nH]1)c1nc(N)n[nH]1` [Compound 24]: 41.6%.
Take `Cc1ccc(CN(CCSSCCN(Cc2ccc(C)cc2)c2nc(N)n[nH]2)c2nc(N)n[nH]2)cc1` [Compound 25]: the “Inhibition (%) Dose 5 μM” value is recorded as 51.8%.
Consider `Cc1ccc(C)c(CN(CCSSCCN(Cc2cc(C)ccc2C)c2nc(N)n[nH]2)c2nc(N)n[nH]2)c1` [Compound 29], for which the “Inhibition (%) Dose 5 μM” value is listed as 70.8%.
The same measure, in the same setting: next, `Cc1cc(C)c(CN(CCSSCCN(Cc2c(C)cc(C)cc2C)c2nc(N)n[nH]2)c2nc(N)n[nH]2)c(C)c1` [Compound 30]: 85.8%; `CC(C)(C)c1ccc(CN(CCSSCCN(Cc2ccc(C(C)(C)C)cc2)c2nc(N)n[nH]2)c2nc(N)n[nH]2)cc1` [Compound 33]: 35.6%; `Nc1n[nH]c(N(CCSSCCN(Cc2ccc(-c3ccccc3)cc2)c2nc(N)n[nH]2)Cc2ccc(-c3ccccc3)cc2)n1` [Compound 34]: 55.8%.
On to `Cc1ccc(CN(CCSSCCN(Cc2ccc(C)c([N+](=O)[O-])c2)c2nc(N)n[nH]2)c2nc(N)n[nH]2)cc1[N+](=O)[O-]` [Compound 37], for which the “Inhibition (%) Dose 5 μM” value amounted to 31.4%.
As for `Nc1n[nH]c(N(CCSSCCN(Cc2cccc3ccccc23)c2nc(N)n[nH]2)Cc2cccc3ccccc23)n1` [Compound 38], the “Inhibition (%) Dose 5 μM” value came out at 56.8%.
For `Nc1n[nH]c(N(CCSSCCN(Cc2ccc3ccccc3c2)c2nc(N)n[nH]2)Cc2ccc3ccccc3c2)n1` [Compound 39], the “Inhibition (%) Dose 5 μM” value was 56.3%.
For vitamin E [reference compound], the “Inhibition (%) Dose 5 μM” value came out at 12.6% and the “Inhibition (%) Dose 100 μM” value stood at 30.5%.

The record behind these values is patent US5028716A, “3,5-diamino-1,2,4-triazole derivatives” (Taisho Pharmaceutical Co., Ltd., priority 1989, dated 1991).
